Assay results from paper PMC8689225, “Cardiac ryanodine receptor N-terminal region biosensors identify novel inhibitors via FRET-based high-throughput screening” (The Journal of Biological Chemistry, 2021).

Biological target: T1, mouse RyR2 NTR (Mus musculus, UniProt E9Q401, K30C/K441C, form not given)
T1 sequence (E9Q401 1-547 K30C/K441C): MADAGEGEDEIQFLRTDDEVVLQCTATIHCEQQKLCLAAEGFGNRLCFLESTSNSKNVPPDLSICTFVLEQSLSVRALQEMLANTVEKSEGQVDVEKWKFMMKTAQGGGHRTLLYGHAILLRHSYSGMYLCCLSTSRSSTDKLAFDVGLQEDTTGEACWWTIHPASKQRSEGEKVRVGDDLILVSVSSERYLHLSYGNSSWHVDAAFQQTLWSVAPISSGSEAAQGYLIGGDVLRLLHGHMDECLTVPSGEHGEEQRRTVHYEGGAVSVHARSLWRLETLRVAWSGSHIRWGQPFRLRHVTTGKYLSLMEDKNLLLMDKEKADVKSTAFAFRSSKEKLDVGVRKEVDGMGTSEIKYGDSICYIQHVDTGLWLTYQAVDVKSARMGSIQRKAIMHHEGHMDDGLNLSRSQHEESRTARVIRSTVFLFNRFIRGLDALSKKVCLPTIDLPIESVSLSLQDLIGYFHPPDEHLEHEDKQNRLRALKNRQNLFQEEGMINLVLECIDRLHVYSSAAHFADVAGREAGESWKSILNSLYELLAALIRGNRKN
Assay: FLT-FRET dose-response with AC-NTR biosensor
Format: binding
Conditions: AC-NTR biosensor
Excerpt: The NTR of mouse RyR2 (residues 1–547) was cloned and expressed as previously described ([27]). The DNA construct contains a 6×His tag, a maltose-binding protein (MBP) tag, and a tobacco etch virus (TEV) protease cleavage site. The seven native solvent-exposed cysteine residues were substituted with alanine residues, and two constructs were engineered with Cys substitutions at surface residues R383 and K441 (in the B and C domains, respectively; termed BC) and at K30 and K441 (in the A and C domains, respectively; termed AC) for labeling with spectroscopic probes such as appropriate donor–acceptor fluorophores for FRET (for the purpose of this report, these are considered the WT forms of AC and BC). A variant of the BC construct corresponding to the disease-associated mutant (R420Q) was also prepared. For this site-directed mutagenesis work, we used the QuikChange (Stratagene) and Phusion High-Fidelity PCR (Thermo Fisher Scientific) kits. The WT-NTR, R420Q-NTR, AC- and BC-NTR, AC- and BC-R420Q-NTR protein constructs were expressed in Escherichia coli Rosetta (DE3) pLacI cells at 18 °C and purified with a protocol adapted from previously published work ([26]). An amylose column was first applied after the cells were lysed by ultrasonication. The protein in the elution was then cleaved using TEV protease. The cleaved crude protein went through the second amylose column to separate from the MBP and then followed by a Superdex S-200 size exclusion column in a buffer consisting of 250 mM KCl, 10 mM HEPES, and 14 mM β-mercaptoethanol (pH 7.4). The NTR protein (3 μM) was then incubated in 10 mM HEPES, 250 mM KCl (pH 7.4, 2 h, 21 °C) with the fluorescent probes Alexa Fluor 488 maleimide (AF488, donor; 40 μM) and Alexa Fluor 568 maleimide (AF568, acceptor; 60 μM). The maleimide of the dye reacts with the thiols the Cys residues engineered into NTR, forming a covalently labeled protein. The Alexa dyes were added last to the reaction mixture, from 10 mM DMSO stock solutions. This reaction is not selective to one site (K30C or K441C), and we anticipate that there is a mixed population with K30C or K441C labeled with either AF488 (donor) or AF568 (acceptor). We focused on maximizing the fraction containing donor–acceptor pairs, thus maximizing FRET efficiency and the precision for detecting a change in structure as an indication that a compound interacts with the NTR biosensor. The labeling efficiency was determined by comparing the molar concentration of the bound dye, determined from UV-Vis absorbance, to the protein concentration, determined from gel densitometry. Essentially complete labeling was confirmed from electrospray ionization mass spectrometry. CD spectra of the WT-NTR and mutant R420Q-NTR constructs before and after labeling were recorded using a JASCO J-815 CD spectrometer (JASCO), confirming similar folding (Fig. S1).
The 1536-well assay plates were prepared as described in our previous reports ([21]). The LOPAC (Sigma-Aldrich) collection received in 96-well plates was reformatted into 384-well polypropylene intermediate plates (Greiner Bio-One) using a multichannel liquid handler, BioMek FX (Beckman Coulter), then transferred to 384-well Echo Qualified source plates (Labcyte Inc). Assay plates were prepared as previously described ([20]). On screening days, these plates were thawed out and were loaded with labeled NTR (5 μl, 20 nM final concentration) using a Multidrop Combi automated sample dispenser.
HTS measurements were conducted in a prototype top-read FLT plate reader (FLT-PR, Fluorescence Innovations, Inc), which reads each 1536-well plate in ∼3 min ([63], [64]). AF488 donor fluorescence was excited with a 473 nm microchip laser from Concepts Research Corporation, and the emission signal was split into two channels by a dichroic mirror and acquired with 517 ± 10 nm (channel 1) and 535 ± 7 nm band-pass filters (channel 2) (Semrock). […]

## CC(=O)O[C@H]1C[C@@]2(C)[C@@H](C[C@@H](O)[C@H]3[C@@]4(C)CC[C@@H](O)[C@@H](C)[C@@H]4CC[C@@]32C)/C1=C(\CCC=C(C)C)C(=O)O [FA, (2Z)-2-[(3R,4S,5S,8S,9S,10S,11R,13R,14S,16S)-16-acetyloxy-3,11-dihydroxy-4,8,10,14-tetramethyl-2,3,4,5,6,7,9,11,12,13,15,16-dodecahydro-1H-cyclopenta[a]phenanthren-17-ylidene]-6-methylhept-5-enoic acid]
0 to 100 μM, CPNQ/corbadrine decrease FLT, FA/tacrolimus increase FLT
  ΔFLT: ≈ 0.1 ns
read-out: EC50, FRET dose-response, Hill fit, Table S4
  EC50: 3.8 µM
